From patent publication US6391840B1, “Multiple component bleaching compositions” (Unilever Home & Personal Care USA, division of Conopco, Inc., priority 1999, dated 2002)
Blank lines part the entries; values can stand above or below the compound they belong to.

Columns and labels:
[1] = Stability tests of imine quat in the presence of hydrogen peroxide at various pH (1H NMR integral ratio; permanganate titration); assay type: physicochemical; details: pH 8, without hydrogen peroxide, 2% imine quat, three days after preparation
[2] = test system: black mould (Cladosporium cladosporoides), autoclaved mould paste; assay: Bleaching of autoclaved black mould paste on porous ceramic tiles, expert panel score 0-6
Experimental: Hydrogen peroxide solutions with and without imine quat (N-methyl-3,4-dihydroisoquinolinium tosylate) and at various pH values were tested on their ability to bleach black mould in comparison with sodium hypochlorite, which is the standard product used to clean black mould stains. The hydrogen peroxide solutions were all freshly prepared just before testing so as to mimic compositions obtained by mixing appropriate partial compositions on dispensing. In order to obtain reproducible results an autoclaved mould paste was used for the testing.
Cultures of hyphal Cladosporium cladosporoides were prepared on agar jelly. Warm water was used to dissolve the jelly and separate it from the mould hyphae, which were then autoclaved. […]
Small circular pieces of single ply tissue paper were cut to a convenient size and placed on the surface of the ‘mould tile’ test pieces, such that the edges of the test pieces remain uncovered. A fixed quantity of the test solution was allowed to drop onto the surface of the tissue and allowed to soak into the tile. […]
Test pieces were assessed for the level of mould bleaching by an expert panel, using a integer scale running from 0 (no decolorisation) to 6 (complete bleaching). Panel test data for each system was collated and analysed statistically to provide mean scores for each test system. […]

[3] = Stability tests of imine quat in the presence of hydrogen peroxide at various pH (1H NMR integral ratio; permanganate titration); assay type: physicochemical
Experimental: The stability of N-methyl-3,4 dihydroisoquinolinium tosylate in the presence of hydrogen peroxide was tested at various pH values. To this end samples were prepared containing 6.0% w/w hydrogen peroxide, 2.0% w/w of the imine quat and 0.01% w/w Dequest™ 2047 (ethylenediamine-tetra[methylene-phosphonic acid] sodium salt, a sequestrant marketed by Monsanto). This is equivalent to a partial composition which together with a second partial composition of the same volume would lead to a final composition with 3% hydrogen peroxide and 1% imine quat.
The pH of the samples was adjusted using 1.0M hydrochloric acid or 2.0M sodium hydroxide as required. During the test the pH of the samples was re-adjusted as indicated using 2.0M sodium hydroxide.
The hydrogen peroxide content was determined by titration against 0.02 M potassium permanganate. […] Complete reaction of 1 equivalent of hydrogen peroxide with 1 equivalent of imine quat would result in a decrease in hydrogen peroxide concentration of 0.2% w/w.
Imine quat stability was monitored using ^1H NMR spectroscopy, by comparing the ratio of the integrals of the iminium proton which appears at 8.85 ppm relative to TMS, with those for the aromatic protons on the inert tosylate counter-ion, which are observed at 7.65 ppm. Loss of imine quat (e.g. through reaction with hydrogen peroxide) is observed as a decrease in the iminium:tosylate integral ratio, and % of imine quat remaining is calculated as integral ratio after storage÷initial integral ratio.

[4] = Bleaching of tea stained cotton cloth (reflectance); details: pH 10.0 or higher, vs 1% sodium hypochlorite pH 12
Source text: Tea stained cotton (BC-1) cloth is routinely used in the assessment of laundry bleaches. Here the method was adapted as an easy and readily reproducible indicator of the activity of the composition against a common hydrophilic household soil in comparison with a standard hypochlorite bleach.
Lengths of pre-stained BC-1 cotton cloth was cut into square swatches (2 cm×2 cm). For each composition four replicate cloths were placed in the bottom of a clean glass beaker and covered with the cleaning composition at room temperature. After the required contact time (generally 2 or 5 minutes) had elapsed, the cloths were removed from the cleaning solution using tweezers and immediately immersed in distilled water. The cloths were stirred in the water, and the washing procedure repeated twice more using fresh water each time. Washed cloths were then pressed between two filters to remove excess water and placed on fresh filter papers, in the dark, to dry.
Reflectance measurements were carried out on a Spectraflash 400 instrument. ΔR measurements were calculated using ‘40ptspec’ software, using a portion of untreated cloth from the same BC-1 cloth batch as a standard. Results obtained from each of the four replicate test cloths were then statistically analysed to obtain mean ΔR values for each bleach system.

[5] = target pH 5.5, 0 days storage, sample 6.0% H2O2 + 2.0% imine quat
[6] = target pH 5.5, 148 days storage
[7] = target pH 6.0, 148 days storage
[8] = target pH 6.5, 148 days storage
[9] = target pH 7.0, 148 days storage
[10] = target pH 7.5, 148 days storage

SMILES: C[N+]1=Cc2ccccc2CC1.Cc1ccc(S(=O)(=O)[O-])cc1 [Imine Quat, N-methyl-3,4-dihydroisoquinolinium tosylate]
- % of the original amount of imine quat remaining [1]: 5%
- effect of adding Imine Quat on mould bleaching over hydrogen peroxide ([2]; pH 10.5 and 11.0): significant improvement in performance
- % of the original amount of imine quat still detectable ([3]; pH 8, in the presence of 6% hydrogen peroxide, 4 hours after preparation): 5%
- imine quat detectable ([3]; pH 8, in the presence of 6% hydrogen peroxide, one day after preparation): no imine quat was detectable
- % Imine Quat remaining [3, 5]: 100%
- % Imine Quat remaining [3, 6]: 93%
- % Imine Quat remaining ([3]; target pH 6.0, 0 days storage): 100%
- % Imine Quat remaining [3, 7]: 83%
- % Imine Quat remaining ([3]; target pH 6.5, 0 days storage): 100%
- % Imine Quat remaining [3, 8]: 67%
- % Imine Quat remaining ([3]; target pH 7.0, 0 days storage): 100%
- % Imine Quat remaining [3, 9]: 43%
- % Imine Quat remaining ([3]; target pH 7.5, 0 days storage): 100%
- % Imine Quat remaining [3, 10]: 33%
- effect of adding Imine Quat on tea stain bleaching [4]: boosts the performance of hydrogen peroxide to values very close to those observed using hypochlorite

- % hydrogen peroxide [3, 5]: 6.00%
- % hydrogen peroxide [3, 6]: 5.99%
- % hydrogen peroxide ([3]; target pH 6.0, 0 days storage): 6.00%
- % hydrogen peroxide [3, 7]: 5.95%
- % hydrogen peroxide ([3]; target pH 6.5, 0 days storage): 6.00%
- % hydrogen peroxide [3, 8]: 5.89%
- % hydrogen peroxide ([3]; target pH 7.0, 0 days storage): 6.00%
- % hydrogen peroxide [3, 9]: 5.84%
- % hydrogen peroxide ([3]; target pH 7.5, 0 days storage): 6.00%
- % hydrogen peroxide [3, 10]: 5.69%
SMILES: OO [hydrogen peroxide, reference compound]
- mould bleaching performance ([2]; pH 5.5): ineffective
